Experimental data from the supplement of paper PMC10883282.

Columns and labels:
Assay in all cases: relative viability vs DMSO control (72 h) (fraction); higher = more viable cells
[1] = test system: G401
Summary of the method: (§1)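 Densities for seeding sarcoma cell lines into 384-well plates were set to give 80–90% confluence. After 24 h, 2.5 µl of serially diluted compound from source plates of 10 mM to 0.0002 mM went in, and plates stayed 72 h at 37 °C in 5% CO2 with 0.1% DMSO vehicle and a 5 µM positive control. Percent growth from ATPLite readings, averaged over up to triplicate wells, served as relative viability, rescaled so 1 means full and 0 means none.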

[2] = test system: HT1080
Summary of the method: as §1

[3] = test system: KHOS-NP
Summary of the method: as §1

[4] = test system: MES-SA
Summary of the method: as §1

[5] = test system: RD-ES
Summary of the method: as §1

[6] = test system: RD
Summary of the method: as §1

[7] = test system: SK-ES-1
Summary of the method: as §1

[8] = test system: SK-LMS-1
Summary of the method: as §1

[9] = test system: SW1353
Summary of the method: as §1

[10] = test system: SW684
Summary of the method: as §1

[11] = test system: SW872
Summary of the method: as §1

[12] = test system: VA-ES-BJ
Summary of the method: as §1

CC1(C)CC=C(c2nc(C3CC(C)(C)OC(C)(C)C3)ccc2NC(=O)c2nc(C#N)c[nH]2)CC1 [Edicotinib]
Conditions	relative viability
[1], 0.00017 µM	1.02
[1], 0.00051 µM	0.99
[1], 0.00152 µM	1
[1], 0.00457 µM	1.01
[1], 0.01372 µM	1.04
[1], 0.04115 µM	0.9919
[1], 0.1235 µM	1.02
[1], 0.3704 µM	1
[1], 1.111 µM	0.952
[1], 3.333 µM	0.989
[1], 10 µM	0.929
[2], 0.00017 µM	1.03
[2], 0.00051 µM	1.07
[2], 0.00152 µM	1.03
[2], 0.00457 µM	1.041
[2], 0.01372 µM	1.04
[2], 0.04115 µM	1.03
[2], 0.1235 µM	1.037
[2], 0.3704 µM	1.021
[2], 1.111 µM	0.9787
[2], 3.333 µM	1.019
[2], 10 µM	0.993
[3], 0.00017 µM	1.03
[3], 0.00051 µM	1.03
[3], 0.00152 µM	1.04
[3], 0.00457 µM	1.04
[3], 0.01372 µM	1.03
[3], 0.04115 µM	1.04
[3], 0.1235 µM	1.05
[3], 0.3704 µM	1.04
[3], 1.111 µM	1.05
[3], 3.333 µM	0.996
[3], 10 µM	0.974
[4], 0.00017 µM	0.945
[4], 0.00051 µM	0.962
[4], 0.00152 µM	0.935
[4], 0.00457 µM	0.939
[4], 0.01372 µM	0.9423
[4], 0.04115 µM	0.93
[4], 0.1235 µM	0.909
[4], 0.3704 µM	0.92
[4], 1.111 µM	0.868
[4], 3.333 µM	0.879
[4], 10 µM	0.887
[5], 0.00017 µM	0.9975
[5], 0.00051 µM	1.01
[5], 0.00152 µM	1.02
[5], 0.00457 µM	1.02
[5], 0.01372 µM	1.01
[5], 0.04115 µM	0.999
[5], 0.1235 µM	1.021
[5], 0.3704 µM	1.01
[5], 1.111 µM	1.01
[5], 3.333 µM	0.987
[5], 10 µM	0.968
[6], 0.00017 µM	1.123
[6], 0.00051 µM	1.09
[6], 0.00152 µM	1.12
[6], 0.00457 µM	1.07
[6], 0.01372 µM	1.07
[6], 0.04115 µM	1.12
[6], 0.1235 µM	1.1
[6], 0.3704 µM	1.1
[6], 1.111 µM	1.07
[6], 3.333 µM	1.05
[6], 10 µM	1.06
[7], 0.00017 µM	1.04
[7], 0.00051 µM	1.06
[7], 0.00152 µM	1.04
[7], 0.00457 µM	1.01
[7], 0.01372 µM	1.04
[7], 0.04115 µM	1.06
[7], 0.1235 µM	1.04
[7], 0.3704 µM	1
[7], 1.111 µM	0.986
[7], 3.333 µM	0.958
[7], 10 µM	0.969
[8], 0.00017 µM	1.01
[8], 0.00051 µM	1.02
[8], 0.00152 µM	1.04
[8], 0.00457 µM	1.04
[8], 0.01372 µM	1.07
[8], 0.04115 µM	1.05
[8], 0.1235 µM	0.995
[8], 0.3704 µM	0.997
[8], 1.111 µM	0.929
[8], 3.333 µM	1.04
[8], 10 µM	1.013
[9], 0.00017 µM	0.973
[9], 0.00051 µM	0.987
[9], 0.00152 µM	0.958
[9], 0.00457 µM	0.9936
[9], 0.01372 µM	0.9624
[9], 0.04115 µM	0.965
[9], 0.1235 µM	0.96
[9], 0.3704 µM	1.03
[9], 1.111 µM	1.09
[9], 3.333 µM	1.08
[9], 10 µM	1.098
[10], 0.00017 µM	1.13
[10], 0.00051 µM	1.14
[10], 0.00152 µM	1.16
[10], 0.00457 µM	1.15
[10], 0.01372 µM	1.13
[10], 0.04115 µM	1.1
[10], 0.1235 µM	1.11
[10], 0.3704 µM	1.17
[10], 1.111 µM	1.24
[10], 3.333 µM	1.14
[10], 10 µM	1.16
[11], 0.00017 µM	1.01
[11], 0.00051 µM	0.994
[11], 0.00152 µM	0.992
[11], 0.00457 µM	1
[11], 0.01372 µM	1.01
[11], 0.04115 µM	0.997
[11], 0.1235 µM	1.01
[11], 0.3704 µM	1.04
[11], 1.111 µM	1.06
[11], 3.333 µM	1.07
[11], 10 µM	1.08
[12], 0.00017 µM	1.04
[12], 0.00051 µM	1.05
[12], 0.00152 µM	1.04
[12], 0.00457 µM	1.06
[12], 0.01372 µM	1.03
[12], 0.04115 µM	0.98
[12], 0.1235 µM	0.977
[12], 0.3704 µM	1.03
[12], 1.111 µM	1.04
[12], 3.333 µM	1.05
[12], 10 µM	1.04

CC(C)(O)CNc1nc(Nc2ccnc(C(F)(F)F)c2)nc(-c2cccc(C(F)(F)F)n2)n1 [Enasidenib]
Conditions	relative viability
[1], 0.00017 µM	0.984
[1], 0.00051 µM	0.973
[1], 0.00152 µM	0.984
[1], 0.00457 µM	1.03
[1], 0.01372 µM	1.025
[1], 0.04115 µM	1.01
[1], 0.1235 µM	1.05
[1], 0.3704 µM	1.02
[1], 1.111 µM	0.98
[1], 3.333 µM	0.994
[1], 10 µM	0.958
[2], 0.00017 µM	1.07
[2], 0.00051 µM	1.076
[2], 0.00152 µM	1.08
[2], 0.00457 µM	1.07
[2], 0.01372 µM	1.042
[2], 0.04115 µM	1.064
[2], 0.1235 µM	1.05
[2], 0.3704 µM	1.1
[2], 1.111 µM	1.16
[2], 3.333 µM	1.11
[2], 10 µM	0.978
[3], 0.00017 µM	1.09
[3], 0.00051 µM	1.1
[3], 0.00152 µM	1.091
[3], 0.00457 µM	1.09
[3], 0.01372 µM	1.08
[3], 0.04115 µM	1.08
[3], 0.1235 µM	1.08
[3], 0.3704 µM	1.06
[3], 1.111 µM	1.04
[3], 3.333 µM	1.06
[3], 10 µM	1.05
[4], 0.00017 µM	0.911
[4], 0.00051 µM	0.947
[4], 0.00152 µM	0.958
[4], 0.00457 µM	0.956
[4], 0.01372 µM	0.9539
[4], 0.04115 µM	0.932
[4], 0.1235 µM	0.9612
[4], 0.3704 µM	0.945
[4], 1.111 µM	0.926
[4], 3.333 µM	0.918
[4], 10 µM	0.808
[5], 0.00017 µM	0.965
[5], 0.00051 µM	1
[5], 0.00152 µM	1.02
[5], 0.00457 µM	1.01
[5], 0.01372 µM	1.012
[5], 0.04115 µM	0.9861
[5], 0.1235 µM	1.01
[5], 0.3704 µM	1.02
[5], 1.111 µM	1.01
[5], 3.333 µM	1.02
[5], 10 µM	1
[6], 0.00017 µM	1.11
[6], 0.00051 µM	1.125
[6], 0.00152 µM	1.11
[6], 0.00457 µM	1.08
[6], 0.01372 µM	1.1
[6], 0.04115 µM	1.1
[6], 0.1235 µM	1.11
[6], 0.3704 µM	1.08
[6], 1.111 µM	1.09
[6], 3.333 µM	1.09
[6], 10 µM	1.04
[7], 0.00017 µM	1.02
[7], 0.00051 µM	1.04
[7], 0.00152 µM	1.03
[7], 0.00457 µM	1.04
[7], 0.01372 µM	1.02
[7], 0.04115 µM	0.996
[7], 0.1235 µM	1.02
[7], 0.3704 µM	0.968
[7], 1.111 µM	0.921
[7], 3.333 µM	0.893
[7], 10 µM	0.663
[8], 0.00017 µM	1.03
[8], 0.00051 µM	0.979
[8], 0.00152 µM	1.01
[8], 0.00457 µM	1.02
[8], 0.01372 µM	1.01
[8], 0.04115 µM	1.01
[8], 0.1235 µM	1.02
[8], 0.3704 µM	1.06
[8], 1.111 µM	1.13
[8], 3.333 µM	1.11
[8], 10 µM	0.83
[9], 0.00017 µM	0.997
[9], 0.00051 µM	1.03
[9], 0.00152 µM	0.99
[9], 0.00457 µM	1.02
[9], 0.01372 µM	1.03
[9], 0.04115 µM	1.01
[9], 0.1235 µM	1.01
[9], 0.3704 µM	1.04
[9], 1.111 µM	0.9847
[9], 3.333 µM	0.994
[9], 10 µM	0.86
[10], 0.00017 µM	1.22
[10], 0.00051 µM	1.21
[10], 0.00152 µM	1.18
[10], 0.00457 µM	1.179
[10], 0.01372 µM	1.19
[10], 0.04115 µM	1.2
[10], 0.1235 µM	1.2
[10], 0.3704 µM	1.17
[10], 1.111 µM	1.21
[10], 3.333 µM	1.11
[10], 10 µM	1.01
[11], 0.00017 µM	1.04
[11], 0.00051 µM	1.07
[11], 0.00152 µM	1.08
[11], 0.00457 µM	1.07
[11], 0.01372 µM	1.08
[11], 0.04115 µM	1.06
[11], 0.1235 µM	1.06
[11], 0.3704 µM	1.068
[11], 1.111 µM	1.07
[11], 3.333 µM	1.07
[11], 10 µM	1.06
[12], 0.00017 µM	1.04
[12], 0.00051 µM	1.06
[12], 0.00152 µM	1.05
[12], 0.00457 µM	1.03
[12], 0.01372 µM	1.06
[12], 0.04115 µM	1.05
[12], 0.1235 µM	1.06
[12], 0.3704 µM	1.07
[12], 1.111 µM	1.05
[12], 3.333 µM	1.02
[12], 10 µM	0.976
